Reference: PubChem BioAssay (NCI)
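Growth conditions: 96-well plates. Treatment: test compound, 48 hours, 5 concentrations. Analysis: linear interpolation between bracketing concentrations; unreached endpoints set to highest concentration. The concentration for 50% growth inhibition is given as GI50. TGI is the concentration that stops growth completely.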

Legend:
Experiment in all cases: DTP human tumour cell line panel, 48 h
786-0 renal = tested on: 786-0 renal
A498 renal = tested on: A498 renal
A549 NSCLC = tested on: A549 NSCLC
ACHN renal = tested on: ACHN renal
BT-549 breast = tested on: BT-549 breast
CAKI-1 renal = tested on: CAKI-1 renal
CCRF-CEM leukemia = tested on: CCRF-CEM leukemia
COLO 205 colon = tested on: COLO 205 colon
DU-145 prostate = tested on: DU-145 prostate
EKVX NSCLC = tested on: EKVX NSCLC
HCC-2998 colon = tested on: HCC-2998 colon
HCT-116 colon = tested on: HCT-116 colon
HCT-15 colon = tested on: HCT-15 colon
HL-60(TB) leukemia = tested on: HL-60(TB) leukemia
HOP-62 NSCLC = tested on: HOP-62 NSCLC
HOP-92 NSCLC = tested on: HOP-92 NSCLC
HT29 colon = tested on: HT29 colon
IGROV1 ovarian = tested on: IGROV1 ovarian
K-562 leukemia = tested on: K-562 leukemia
KM12 colon = tested on: KM12 colon
LOX IMVI melanoma = tested on: LOX IMVI melanoma
M14 melanoma = tested on: M14 melanoma
MALME-3M melanoma = tested on: MALME-3M melanoma
MCF7 breast = tested on: MCF7 breast
MDA-MB-231 breast = tested on: MDA-MB-231 breast
MDA-MB-435 = tested on: MDA-MB-435
MOLT-4 leukemia = tested on: MOLT-4 leukemia
NCI-H226 lung = tested on: NCI-H226 lung
NCI-H23 lung = tested on: NCI-H23 lung
NCI-H460 lung = tested on: NCI-H460 lung
NCI-H522 lung = tested on: NCI-H522 lung
NCI/ADR-RES ovarian = tested on: NCI/ADR-RES ovarian
OVCAR-3 ovarian = tested on: OVCAR-3 ovarian
OVCAR-4 ovarian = tested on: OVCAR-4 ovarian
OVCAR-5 ovarian = tested on: OVCAR-5 ovarian
OVCAR-8 ovarian = tested on: OVCAR-8 ovarian
PC-3 prostate = tested on: PC-3 prostate
RPMI-8226 leukemia = tested on: RPMI-8226 leukemia
RXF 393 renal = tested on: RXF 393 renal
SF-268 CNS = tested on: SF-268 CNS
SF-295 CNS = tested on: SF-295 CNS
SF-539 CNS = tested on: SF-539 CNS
SK-MEL-2 melanoma = tested on: SK-MEL-2 melanoma
SK-MEL-28 melanoma = tested on: SK-MEL-28 melanoma
SK-MEL-5 melanoma = tested on: SK-MEL-5 melanoma
SK-OV-3 ovarian = tested on: SK-OV-3 ovarian
SN12C renal = tested on: SN12C renal
SNB-19 CNS = tested on: SNB-19 CNS
SNB-75 CNS = tested on: SNB-75 CNS
SR leukemia = tested on: SR leukemia
SW-620 colon = tested on: SW-620 colon
T-47D breast = tested on: T-47D breast
TK-10 renal = tested on: TK-10 renal
U251 CNS = tested on: U251 CNS
UACC-257 melanoma = tested on: UACC-257 melanoma
UACC-62 melanoma = tested on: UACC-62 melanoma
UO-31 renal = tested on: UO-31 renal

O=[N+]([O-])c1cc([N+](=O)[O-])c(N2CCCC2)cc1NN=C(c1ccc(O)cc1)c1ccc(O)cc1
GI50 (786-0 renal): 6.88 µM
TGI (786-0 renal): 19.8 µM
GI50 (A498 renal): 5.34 µM
TGI (A498 renal): 16.7 µM
GI50 (A549 NSCLC): 3.82 µM
TGI (A549 NSCLC): 16.4 µM
GI50 (ACHN renal): 2.31 µM
TGI (ACHN renal): 11.7 µM
GI50 (BT-549 breast): 18.5 µM
TGI (BT-549 breast): 75.3 µM
GI50 (CAKI-1 renal): 6.23 µM
TGI (CAKI-1 renal): 21.1 µM
GI50 (CCRF-CEM leukemia): 2.17 µM
TGI (CCRF-CEM leukemia): 21.5 µM
GI50 (COLO 205 colon): 3.79 µM
TGI (COLO 205 colon): 15.5 µM
GI50 (DU-145 prostate): 7.43 µM
TGI (DU-145 prostate): 20.2 µM
GI50 (EKVX NSCLC): 0.508 µM
TGI (EKVX NSCLC): 23.9 µM
GI50 (HCC-2998 colon): 4.12 µM
TGI (HCC-2998 colon): 14.5 µM
GI50 (HCT-116 colon): 4.54 µM
TGI (HCT-116 colon): 16.5 µM
GI50 (HCT-15 colon): 3.98 µM
TGI (HCT-15 colon): 15.9 µM
GI50 (HL-60(TB) leukemia): 7.89 µM
TGI (HL-60(TB) leukemia): 37.5 µM
GI50 (HOP-62 NSCLC): 10.3 µM
TGI (HOP-62 NSCLC): 24.5 µM
GI50 (HOP-92 NSCLC): 10.1 µM
TGI (HOP-92 NSCLC): 26.4 µM
GI50 (HT29 colon): 3.41 µM
TGI (HT29 colon): 14.5 µM
GI50 (IGROV1 ovarian): 3.96 µM
TGI (IGROV1 ovarian): 16.9 µM
GI50 (K-562 leukemia): 2.35 µM
TGI (K-562 leukemia): 21 µM
GI50 (KM12 colon): 3.51 µM
TGI (KM12 colon): 14.1 µM
GI50 (LOX IMVI melanoma): 3.28 µM
TGI (LOX IMVI melanoma): 14.6 µM
GI50 (M14 melanoma): 9.62 µM
TGI (M14 melanoma): 22.1 µM
GI50 (MALME-3M melanoma): 14.9 µM
TGI (MALME-3M melanoma): 35 µM
GI50 (MCF7 breast): 3.55 µM
TGI (MCF7 breast): 20.1 µM
GI50 (MDA-MB-231 breast): 4.01 µM
TGI (MDA-MB-231 breast): 16 µM
GI50 (MDA-MB-435): 2.52 µM
TGI (MDA-MB-435): 14.4 µM
GI50 (MOLT-4 leukemia): 3.36 µM
TGI (MOLT-4 leukemia): > 100 µM
GI50 (NCI-H226 lung): 16.9 µM
TGI (NCI-H226 lung): 45.8 µM
GI50 (NCI-H23 lung): 9.46 µM
TGI (NCI-H23 lung): 23.3 µM
GI50 (NCI-H460 lung): 4.21 µM
TGI (NCI-H460 lung): 15.9 µM
GI50 (NCI-H522 lung): 12.8 µM
TGI (NCI-H522 lung): 45.6 µM
GI50 (NCI/ADR-RES ovarian): 13.6 µM
TGI (NCI/ADR-RES ovarian): 37.9 µM
GI50 (OVCAR-3 ovarian): 2.41 µM
TGI (OVCAR-3 ovarian): 7.65 µM
GI50 (OVCAR-4 ovarian): 4.03 µM
TGI (OVCAR-4 ovarian): 40 µM
GI50 (OVCAR-5 ovarian): 17.2 µM
TGI (OVCAR-5 ovarian): 30.9 µM
GI50 (OVCAR-8 ovarian): 9.86 µM
TGI (OVCAR-8 ovarian): 60.5 µM
GI50 (PC-3 prostate): 6.07 µM
TGI (PC-3 prostate): > 100 µM
GI50 (RPMI-8226 leukemia): 3.78 µM
TGI (RPMI-8226 leukemia): 24 µM
GI50 (RXF 393 renal): 3.12 µM
TGI (RXF 393 renal): 12.8 µM
GI50 (SF-268 CNS): 2.99 µM
TGI (SF-268 CNS): 12.6 µM
GI50 (SF-295 CNS): 1.48 µM
TGI (SF-295 CNS): 5.36 µM
GI50 (SF-539 CNS): 12.4 µM
TGI (SF-539 CNS): 24.8 µM
GI50 (SK-MEL-2 melanoma): 7.04 µM
TGI (SK-MEL-2 melanoma): 24.3 µM
GI50 (SK-MEL-28 melanoma): 3.39 µM
TGI (SK-MEL-28 melanoma): 13.8 µM
GI50 (SK-MEL-5 melanoma): 2.73 µM
TGI (SK-MEL-5 melanoma): 15.3 µM
GI50 (SK-OV-3 ovarian): 7.44 µM
TGI (SK-OV-3 ovarian): 19.8 µM
GI50 (SN12C renal): 10.1 µM
TGI (SN12C renal): 23.3 µM
GI50 (SNB-19 CNS): 7.06 µM
TGI (SNB-19 CNS): 21.6 µM
GI50 (SNB-75 CNS): 1.34 µM
TGI (SNB-75 CNS): 6.4 µM
GI50 (SR leukemia): 5.98 µM
TGI (SR leukemia): 30.9 µM
GI50 (SW-620 colon): 9.15 µM
TGI (SW-620 colon): 21.2 µM
GI50 (T-47D breast): 0.681 µM
TGI (T-47D breast): 4.76 µM
GI50 (TK-10 renal): 11.6 µM
TGI (TK-10 renal): 35.8 µM
GI50 (U251 CNS): 4.81 µM
TGI (U251 CNS): 18.3 µM
GI50 (UACC-257 melanoma): 13.6 µM
TGI (UACC-257 melanoma): 26.9 µM
GI50 (UACC-62 melanoma): 5.82 µM
TGI (UACC-62 melanoma): 19 µM
GI50 (UO-31 renal): 5.54 µM
TGI (UO-31 renal): 18.5 µM
